Here are results for two compounds from the NIST ThermoML archive (doi:10.1021/je900709n).

For series [1] the following is noted: Liquid.
A short description of series [2]: φn = volume fraction of the nth substance listed. The conditions noted are these: 101 kPa, Liquid; for viscosity: Capillary tube (Ostwald / Ubbelohde) method; for mass density: Pycnometric method.

Numbers after ± are expanded uncertainties.

In general, viscosity refers to the internal friction of a fluid under shear. As a reminder, the mass density is mass per unit of volume. Consider `C1COCO1` [1,3-dioxolane], for which the viscosity in series [1] (298.15 K, 101.33 kPa, Capillary tube (Ostwald / Ubbelohde) method) is on record as 0.575 ± 0.012 mPa·s. Besides, in series [1] (298.15 K, 101.33 kPa, Pycnometric method), the mass density amounted to 1058.6 ± 1.2 kg/m3. Also, the Normal boiling temperature in series [1] (Distillation) stood at 75 ± 1 °C.

As for `C1COCO1` [1,3-dioxolane] + O, the viscosity worked out at 0.9716 ± 0.19 mPa·s in series [2] (298.15 K, φ2 = 0.3); 1.357 ± 0.27 mPa·s in series [2] (298.15 K, φ2 = 0.6); 0.9415 ± 0.19 mPa·s in series [2] (298.15 K, φ2 = 0.9); 0.9314 ± 0.19 mPa·s in series [2] (308.15 K, φ2 = 0.3); 1.133 ± 0.23 mPa·s in series [2] (308.15 K, φ2 = 0.6); 0.822 ± 0.16 mPa·s in series [2] (308.15 K, φ2 = 0.9). In addition, the mass density in series [2] (298.15 K, φ2 = 0.3) was 1049.2 ± 6 kg/m3; in series [2] (298.15 K, φ2 = 0.6) it was 1039.1 ± 6 kg/m3; in series [2] (298.15 K, φ2 = 0.9), 1009.2 ± 6 kg/m3; in series [2] (308.15 K, φ2 = 0.3), 1041.1 ± 6 kg/m3; in series [2] (308.15 K, φ2 = 0.6) it was 1030.7 ± 6 kg/m3; in series [2] (308.15 K, φ2 = 0.9) it was 1003.3 ± 6 kg/m3.
